Measured values from patent publication US12522602B2, “Derivatives having 2,3-dihydro-1H-indene or 2,3-dihydrobenzofuran moiety or pharmaceutically acceptable salt thereof and pharmaceutical compositions comprising the same” (YUHAN CORPORATION, priority 2019, dated 2026).

Tested on: GM1 production in Jurkat cells
Assay: cells
Format: cell-based
Settings: Homo sapiens, Jurkat, 72 h

SMILES	IC50 [nM]
O=C(NC1CCc2cc(-c3ccc(Cl)c(Cl)c3)ccc21)O[C@@H]1CN2CCC1CC2 (stereo partly drawn) [Example 23, (S)-quinuclidin-3-yl (5-(3,4-dichlorophenyl)-2,3-dihydro-1H-inden-1-yl)carbamate]	63.7
CCCOc1c(C)cc(-c2ccc3c(c2)CC(C)(C)C3NC(=O)O[C@@H]2CN3CCC2CC3)cc1C (stereo partly drawn) [Example 173, (S)-quinuclidin-3-yl (5-(3,5-dimethyl-4-propoxyphenyl)-2,2-dimethyl-2,3-dihydro-1H-inden-1-yl)carbamate]	34.8
CC1(C)Cc2cc(-c3cccc4cccnc34)ccc2C1NC(=O)O[C@@H]1CN2CCC1CC2 (stereo partly drawn) [Example 156, (S)-quinuclidin-3-yl (2,2-dimethyl-5-(quinolin-8-yl)-2,3-dihydro-1H-inden-1-yl)carbamate]	46.7
CSc1cccc(-c2ccc3c(c2)CC(C)(C)C3NC(=O)O[C@@H]2CN3CCC2CC3)c1 (stereo partly drawn) [Example 107, (S)-quinuclidin-3-yl (2,2-dimethyl-5-(3-(methylthio)phenyl)-2,3-dihydro-1H-inden-1-yl)carbamate]	6.3
CC1(C)Cc2cc(-c3ccc(OCC4CC4)nc3)c(F)cc2C1NC(=O)O[C@@H]1CN2CCC1CC2 (stereo partly drawn) [Example 363, (S)-quinuclidin-3-yl (5-(6-(cyclopropylmethoxy)pyridin-3-yl)-6-fluoro-2,2-dimethyl-2,3-dihydro-1H-inden-1-yl)carbamate]	8.7
CC1(C)Cc2cc(-c3ccc(OC(F)(F)F)c(F)c3)ccc2C1NC(=O)O[C@@H]1CN2CCC1CC2 (stereo partly drawn) [Example 249, (S)-quinuclidin-3-yl (5-(3-fluoro-4-(trifluoromethoxy)phenyl)-2,2-dimethyl-2,3-dihydro-1H-inden-1-yl)carbamate]	37
CCCOc1ccc(F)cc1-c1ccc2c(c1)CC(C)(C)C2NC(=O)O[C@@H]1CN2CCC1CC2 (stereo partly drawn) [Example 213, (S)-quinuclidin-3-yl (5-(5-fluoro-2-propoxyphenyl)-2,2-dimethyl-2,3-dihydro-1H-inden-1-yl)carbamate]	39.8
CCCCOc1ccc(-c2cc3c(cc2F)C(NC(=O)O[C@@H]2CN4CCC2CC4)C(C)(C)C3)cc1 (stereo partly drawn) [Example 361, (S)-quinuclidin-3-yl (5-(4-butoxyphenyl)-6-fluoro-2,2-dimethyl-2,3-dihydro-1H-inden-1-yl)carbamate]	2.1
CCCCOc1ccc(-c2ccc3c(c2)CC(C)(C)C3NC(=O)O[C@@H]2CN3CCC2CC3)cc1Cl (stereo partly drawn) [Example 202, (S)-quinuclidin-3-yl (5-(4-butoxy-3-chlorophenyl)-2,2-dimethyl-2,3-dihydro-1H-inden-1-yl)carbamate]	26.3
CCCCc1ccc(-c2ccc3c(c2)CC(CC)(CC)C3NC(=O)O[C@@H]2CN3CCC2CC3)cc1 (stereo partly drawn) [Example 280, (S)-quinuclidin-3-yl (5-(4-butylphenyl)-2,2-diethyl-2,3-dihydro-1H-inden-1-yl)carbamate]	1.6
CC(C)(C)c1ccc(-c2cc3c(cc2F)C(NC(=O)O[C@@H]2CN4CCC2CC4)C(C)(C)C3)cc1 (stereo partly drawn) [Example 353, (S)-quinuclidin-3-yl (5-(4-(tert-butyl)phenyl)-6-fluoro-2,2-dimethyl-2,3-dihydro-1H-inden-1-yl)carbamate]	12.7
CCC1(CC)Cc2cc(-c3ccc(OC)cc3)ccc2C1NC(=O)O[C@@H]1CN2CCC1CC2 (stereo partly drawn) [Example 283, (S)-quinuclidin-3-yl (2,2-diethyl-5-(4-methoxyphenyl)-2,3-dihydro-1H-inden-1-yl)carbamate]	17.2
CC(C)Oc1ccc(-c2cc3c(cc2F)C(NC(=O)O[C@@H]2CN4CCC2CC4)C(C)(C)C3)cc1 (stereo partly drawn) [Example 358, (S)-quinuclidin-3-yl (6-fluoro-5-(4-isopropoxyphenyl)-2,2-dimethyl-2,3-dihydro-1H-inden-1-yl)carbamate]	7.7
O=C(NC1CCc2cc(-c3ccc(OC(F)F)cc3)ccc21)O[C@@H]1CN2CCC1CC2 (stereo partly drawn) [Example 14, (S)-quinuclidin-3-yl (5-(4-(difluoromethoxy)phenyl)-2,3-dihydro-1H-inden-1-yl)carbamate]	54.3
COc1ncc(-c2ccc3c(c2)CC(C)(C)C3NC(=O)O[C@@H]2CN3CCC2CC3)cc1C(F)(F)F (stereo partly drawn) [Example 188, (S)-quinuclidin-3-yl (5-(6-methoxy-5-(trifluoromethyl)pyridin-3-yl)-2,2-dimethyl-2,3-dihydro-1H-inden-1-yl)carbamate]	46.2
CCCOc1cccc(-c2ccc3c(c2)CC(C)(C)C3NC(=O)O[C@@H]2CN3CCC2CC3)c1 (stereo partly drawn) [Example 199, (S)-quinuclidin-3-yl (2,2-dimethyl-5-(3-propoxyphenyl)-2,3-dihydro-1H-inden-1-yl)carbamate]	5.5
CC1(C)Cc2cc(-c3ccc(Cl)c(Cl)c3)ccc2C1NC(=O)O[C@@H]1CN2CCC1CC2 (stereo partly drawn) [Example 92, (S)-quinuclidin-3-yl (5-(3,4-dichlorophenyl)-2,2-dimethyl-2,3-dihydro-1H-inden-1-yl)carbamate]	43.9
CCC1(CC)Cc2cc(-c3ccoc3)ccc2C1NC(=O)O[C@@H]1CN2CCC1CC2 (stereo partly drawn) [Example 307, (S)-quinuclidin-3-yl (2,2-diethyl-5-(furan-3-yl)-2,3-dihydro-1H-inden-1-yl)carbamate]	30.2
COc1cc2c(cc1-c1ccc(C3CC3)cc1)CC(C)(C)C2NC(=O)O[C@@H]1CN2CCC1CC2 (stereo partly drawn) [Example 317, (S)-quinuclidin-3-yl (5-(4-cyclopropylphenyl)-6-methoxy-2,2-dimethyl-2,3-dihydro-1H-inden-1-yl)carbamate]	10.3
CCOc1ccc(-c2ccc3c(c2)CC(C)(C)C3NC(=O)O[C@@H]2CN3CCC2CC3)cc1Cl (stereo partly drawn) [Example 204, (S)-quinuclidin-3-yl (5-(3-chloro-4-ethoxyphenyl)-2,2-dimethyl-2,3-dihydro-1H-inden-1-yl)carbamate]	57.2
CC1(C)Cc2cc(-c3ccc4c(c3)CCCO4)ccc2C1NC(=O)O[C@@H]1CN2CCC1CC2 (stereo partly drawn) [Example 130, (S)-quinuclidin-3-yl (5-(chroman-6-yl)-2,2-dimethyl-2,3-dihydro-1H-inden-1-yl)carbamate]	10
COc1cc2c(cc1-c1ccc(C(C)(C)C)cc1)CC(C)(C)C2NC(=O)O[C@@H]1CN2CCC1CC2 (stereo partly drawn) [Example 316, (S)-quinuclidin-3-yl (5-(4-(tert-butyl)phenyl)-6-methoxy-2,2-dimethyl-2,3-dihydro-1H-inden-1-yl)carbamate]	13.3
COc1cc2c(cc1-c1cccc(C(C)C)c1)CC(C)(C)C2NC(=O)O[C@@H]1CN2CCC1CC2 (stereo partly drawn) [Example 336, (S)-quinuclidin-3-yl (5-(3-isopropylphenyl)-6-methoxy-2,2-dimethyl-2,3-dihydro-1H-inden-1-yl)carbamate]	48
CC1(C)Cc2cc(-c3ccc(N4CCOCC4)c(F)c3)ccc2C1NC(=O)O[C@@H]1CN2CCC1CC2 (stereo partly drawn) [Example 152, (S)-quinuclidin-3-yl (5-(3-fluoro-4-morpholinophenyl)-2,2-dimethyl-2,3-dihydro-1H-inden-1-yl)carbamate]	32.5
CC1(C)Cc2cc(-c3ccc(OC(F)(F)F)cc3)ccc2C1NC(=O)O[C@@H]1CN2CCC1CC2 (stereo partly drawn) [Example 76, (S)-quinuclidin-3-yl (2,2-dimethyl-5-(4-(trifluoromethoxy)phenyl)-2,3-dihydro-1H-inden-1-yl)carbamate]	3.7
